Here are results for 14 molecules from ChEMBL document CHEMBL1201862, “PubChem BioAssay data set” (2004).

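48-hour exposure; five concentrations; linearly interpolated endpoints. At the GI50, growth is halved.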 Calls of active or inactive are those of the source. Rule as the data show it: active = GI50 up to about 1.1 µM and inactive = higher.

Test systems include KM-20L2; DMS-273; DLD-1; M19-MEL; HOP-18; SW-620; SNB-78; XF498; HCC 2998; MCF7; RPMI-8226; NCI/ADR-RES; DMS-114; A498; M14; 786-0; TK-10; ACHN; SR.
What all share (assay): NCI anticancer screen, dose series, 48 h

For the molecule `O=C1c2cccc3cc4ccccc4c(c23)C(=O)N1CCNCCN1C(=O)c2cccc3cc4ccccc4c(c23)C1=O`, the GI50 in the assay with KM-20L2 was 0.518 µM (active); in the assay on DMS-273, 0.277 µM (active); in the assay with DLD-1, 0.714 µM (active); in the assay with M19-MEL, 0.508 µM (active); in the assay with HOP-18 it was 0.231 µM (active); with SW-620, 0.238 µM (active). Moreover, the GI50 in the assay on SNB-78 was 0.518 µM (active); with XF498, 0.254 µM (active); with HCC 2998, 0.912 µM (active); in the assay on MCF7, 0.282 µM (active); with RPMI-8226 it was 0.718 µM (active); in the assay on NCI/ADR-RES it was 0.522 µM (active). For the same molecule, the GI50 in the assay on DMS-114 is 0.23 µM (active); in the assay with A498, 0.716 µM (active).

As to `NC(=S)N/N=C/c1ccc(OC(=O)COc2ccccc2Cl)cn1`, the GI50 in the assay with KM-20L2 was 40 µM (inactive); in the assay with DMS-273, 21 µM (inactive); in the assay with DLD-1, 33 µM (inactive); in the assay with M19-MEL, 25.9 µM (inactive); in the assay on HOP-18, 39.3 µM (inactive); in the assay with SW-620 it was 31 µM (inactive). Further, the GI50 in the assay with SNB-78 was > 80.9 µM (inactive); with XF498 it was 40 µM (inactive); in the assay on HCC 2998 it was 36.6 µM (inactive); with MCF7, 10.5 µM (inactive); with RPMI-8226, 46.3 µM (inactive); in the assay with NCI/ADR-RES, 15.4 µM (inactive). In addition, the GI50 in the assay on A498 was > 72.8 µM (inactive).

As to `O=C(c1ccccc1)c1cn(/N=C\c2ccccc2)c(=O)nc1-c1ccccc1`, the GI50 in the assay with KM-20L2, in the assay on DLD-1, in the assay on M19-MEL, with HOP-18, with SW-620 and with SNB-78 was > 100 µM (inactive) each time. In addition, the GI50 with M14, in the assay on 786-0, in the assay with HCC 2998, in the assay with TK-10, in the assay on DMS-114 and in the assay on A498 was > 100 µM (inactive) in each case. In the assay on ACHN, the GI50 was > 100 µM (inactive).

For `CSc1sc(=S)sc1SC`, the GI50 with KM-20L2 is > 100 µM (inactive); in the assay with DMS-273 it was 77.8 µM (inactive); in the assay on DLD-1 it was > 100 µM (inactive); with M19-MEL, > 100 µM (inactive); in the assay on HOP-18 it was > 100 µM (inactive); in the assay with SW-620 it was > 100 µM (inactive). The GI50 was > 100 µM (inactive) in the assay on SNB-78; > 100 µM (inactive) with XF498; > 100 µM (inactive) with HCC 2998; > 100 µM (inactive) in the assay with MCF7; > 100 µM (inactive) with RPMI-8226; 25.7 µM (inactive) with NCI/ADR-RES. Also, the GI50 with DMS-114 and in the assay with A498 was > 100 µM (inactive) each time.

With `C=CC(OCC)(OCC)OCC`, the GI50 in the assay with KM-20L2 was > 100 µM (inactive); in the assay on DMS-273 it was 18.2 µM (inactive); with SR, 29.9 µM (inactive); in the assay on DLD-1, 35.2 µM (inactive); in the assay with M19-MEL, > 100 µM (inactive); in the assay on HOP-18, > 100 µM (inactive). Further, the GI50 in the assay on SNB-78 was > 100 µM (inactive); in the assay on XF498, > 100 µM (inactive); with M14 it was > 100 µM (inactive); in the assay with 786-0, 23.5 µM (inactive); in the assay with HCC 2998, > 100 µM (inactive); with TK-10 it was > 100 µM (inactive). The GI50 with RPMI-8226 is 61.1 µM (inactive); with DMS-114 it was 15.6 µM (inactive); in the assay with A498 it was > 100 µM (inactive); in the assay on ACHN, > 100 µM (inactive).

Turning to `CC1CC2C3CC(F)C4=CC(=O)C=CC4(C)C3(F)C(O)CC2(C)C1(O)C(=O)COC(=O)C(C)(C)C` (configuration not stated), the GI50 with KM-20L2, in the assay with DMS-273, in the assay on SR, with DLD-1, in the assay with M19-MEL and in the assay with SW-620 was > 100 µM (inactive) throughout. For the same molecule, the GI50 with SNB-78 was 27.5 µM (inactive); with XF498, > 100 µM (inactive); in the assay with M14, > 100 µM (inactive); in the assay with 786-0, 68.1 µM (inactive); in the assay with HCC 2998, > 100 µM (inactive); in the assay on TK-10 it was 77.1 µM (inactive). Further, the GI50 with RPMI-8226 was 44.4 µM (inactive); in the assay on DMS-114 it was > 100 µM (inactive); in the assay on ACHN, 32.7 µM (inactive).

Turning to `CC(=O)N/C(=C\c1ccc(/C=C(\NC(C)=O)C2=NC3C(=O)c4ccccc4C(=O)C3N2)cc1)C1=NC2C(=O)c3ccccc3C(=O)C2N1` (configuration not stated), the GI50 in the assay with KM-20L2 was 39.7 µM (inactive); in the assay with DMS-273, 19.6 µM (inactive); with DLD-1 it was 7.71 µM (inactive); in the assay on M19-MEL, 92.3 µM (inactive); with HOP-18 it was 71.3 µM (inactive); in the assay on SW-620, 1.84 µM (inactive). For the same molecule, the GI50 in the assay on SNB-78 is 70.3 µM (inactive); in the assay with XF498 it was > 100 µM (inactive); with M14, 49.8 µM (inactive); with TK-10, 12.1 µM (inactive); in the assay on RPMI-8226, 5.05 µM (inactive); in the assay on DMS-114, 8 µM (inactive). Besides, the values for the GI50 in the assay on A498 and in the assay with ACHN were 5.57 µM (inactive) and 4.1 µM (inactive), respectively.

Take `NC(=O)Nc1cc(O)ccc1/N=N/c1ccc(S(=O)(=O)Nc2ccccn2)cc1`: the GI50 with KM-20L2, in the assay with DMS-273, in the assay with M19-MEL, in the assay with HOP-18, in the assay with SW-620 and in the assay on SNB-78 was > 100 µM (inactive) in each case. The GI50 in the assay on XF498, in the assay with M14, with HCC 2998, in the assay on TK-10, in the assay with RPMI-8226 and in the assay with DMS-114 was > 100 µM (inactive) throughout. Further, the GI50 in the assay on A498 and with ACHN was > 100 µM (inactive) in each case.

Consider `CCC1OC(=O)C(C)C(OC2CC(C)(O)C(O)C(C)O2)C(C)C(O)C(C)(O)CC(C)C(=O)C(C)C(O)C1C` (configuration not stated), for which the GI50 in the assay on KM-20L2, in the assay on DMS-273, in the assay with DLD-1, in the assay with M19-MEL, in the assay on HOP-18 and with SW-620 was > 300 µM (inactive) each time. In addition, the GI50 in the assay with SNB-78 was 204 µM (inactive); with XF498 it was > 300 µM (inactive); with HCC 2998, > 300 µM (inactive); in the assay on MCF7, > 300 µM (inactive); in the assay with RPMI-8226 it was > 300 µM (inactive); in the assay with NCI/ADR-RES, > 300 µM (inactive). Besides, the GI50 was > 300 µM (inactive) in the assay with DMS-114 and > 267 µM (inactive) in the assay on A498.

As for `Cn1cnnc1Sc1c([N+](=O)[O-])nc(-c2ccc([N+](=O)[O-])cc2)n1C`, the GI50 is 17.4 µM (inactive) in the assay on DMS-273; 16.2 µM (inactive) in the assay on SR; 15.3 µM (inactive) in the assay with DLD-1; 17.8 µM (inactive) with M19-MEL; 17.4 µM (inactive) in the assay with HOP-18; 16.1 µM (inactive) in the assay on SW-620. Moreover, the GI50 in the assay on SNB-78 is 18.3 µM (inactive); with XF498, 10.4 µM (inactive); in the assay on M14, 16.4 µM (inactive); with 786-0, 17.7 µM (inactive); in the assay on HCC 2998, 17.5 µM (inactive); in the assay with TK-10, 18.7 µM (inactive). For the same molecule, the GI50 is 16.1 µM (inactive) with RPMI-8226, 17.9 µM (inactive) in the assay with DMS-114, > 100 µM (inactive) with A498 and 18.6 µM (inactive) in the assay on ACHN.

With `CCC1C[N+]23CCc4c([nH]c5ccccc45)C2CC1CC3` (configuration not stated), the GI50 with KM-20L2 is 97.1 µM (inactive); in the assay on DMS-273 it was 55.5 µM (inactive); in the assay with SR, 39.3 µM (inactive); in the assay on DLD-1 it was 76 µM (inactive); with M19-MEL, 52.5 µM (inactive); in the assay with SW-620 it was > 100 µM (inactive). In addition, the GI50 with XF498 was 42.9 µM (inactive); in the assay on M14, > 100 µM (inactive); in the assay on HCC 2998, > 100 µM (inactive); in the assay with TK-10 it was 74.3 µM (inactive); with RPMI-8226 it was 38.8 µM (inactive); in the assay with DMS-114 it was 53.5 µM (inactive). Moreover, in the assay on ACHN, the GI50 is > 100 µM (inactive).

As for `COC(=O)C1=CC[C@@H]2C(C(=O)O)=CO[C@@H](OC3OC(CO)C(O)C(O)C3O)[C@H]12` (some centres not stated), the GI50 was > 300 µM (inactive) with KM-20L2; > 300 µM (inactive) with DMS-273; > 189 µM (inactive) with DLD-1; > 300 µM (inactive) in the assay with M19-MEL; 13.7 µM (inactive) in the assay on HOP-18; > 300 µM (inactive) in the assay with SW-620. In addition, the GI50 was > 142 µM (inactive) in the assay on SNB-78; > 228 µM (inactive) with XF498; > 110 µM (inactive) in the assay with HCC 2998; > 114 µM (inactive) in the assay on MCF7; > 300 µM (inactive) in the assay with RPMI-8226; > 300 µM (inactive) in the assay on NCI/ADR-RES. The results for the GI50 in the assay with DMS-114 and in the assay with A498 were > 300 µM (inactive) and > 30 µM (inactive), respectively.

Take `Cc1cc(NS(=O)(=O)c2ccc(Nc3c4ccccc4nc4c(C(=O)N5CCN(CCO)CC5)ccc(Cl)c34)cc2)no1`: the GI50 with KM-20L2 was > 100 µM (inactive); with DMS-273 it was > 100 µM (inactive); in the assay on DLD-1, 52.5 µM (inactive); in the assay on M19-MEL it was > 100 µM (inactive); in the assay on XF498 it was > 100 µM (inactive); in the assay with M14, > 100 µM (inactive). Besides, the GI50 in the assay on 786-0 was > 100 µM (inactive); with HCC 2998, 71.8 µM (inactive); with TK-10, > 100 µM (inactive); in the assay on RPMI-8226, 70.1 µM (inactive); in the assay with DMS-114, > 100 µM (inactive); in the assay on A498, > 100 µM (inactive).

With `COc1cc(OC)c(SSCCCCS(=O)O)c(OC)c1`, the GI50 is 18.7 µM (inactive) in the assay on KM-20L2; 16.7 µM (inactive) in the assay on DMS-273; 17.5 µM (inactive) in the assay on DLD-1; 7.52 µM (inactive) in the assay on M19-MEL; 18 µM (inactive) with HOP-18; 13.9 µM (inactive) in the assay on SW-620. Also, the GI50 with SNB-78 is 12.1 µM (inactive); in the assay with XF498 it was 13.9 µM (inactive); in the assay on M14, 14.3 µM (inactive); in the assay with 786-0, 18.7 µM (inactive); in the assay on HCC 2998, 20.1 µM (inactive); in the assay with TK-10, 21.3 µM (inactive). Moreover, the figures for the GI50 in the assay with DMS-114, in the assay on A498 and with ACHN were 16.6 µM (inactive), 14.6 µM (inactive) and 16.1 µM (inactive), respectively.
